This is an account of results in patent US20250084380A1, “ARTIFICIAL BRAIN TISSUE” (priority 2016, published 2025).

Data set [1] relates to hiPSC derived 3D neural culture. Put plainly: Local field potential recordings of hiPSC-derived 3D neural culture with activity inhibitors. Type of data set: cell-based, human. To be noted: for spontaneous and inducible activity (LFP): CNQX 50 μM, AP5 250 μM together.
Data set [2] deals with microglia. As to the kind of experiment: Microglia activation with LPS treatment. The format is cell-based, rat/mouse. The settings on record: 100 ng/mL LPS; 3 days. The protocol: DAPI was used as a nuclear counterstain. Microglia were also assessed for their ability to activate upon or following treatment with lipopolysaccharide (LPS) (FIG. 1, panel G), and further analyzed post-treatment for expression of inducible nitric oxide synthase (iNOS) (FIG. 1, panel H) and interleukin 1-beta (IL1-beta) (FIG. 1, panel I). Microglia activation ability with LPS (lipopolysaccharide) treatment was performed with 100 ng/mL of LPS to activate microglia cells (20,000 cells per well, 96 well plate).

Data set [3] has as its system microglia. As to the kind of experiment: Suppression of microglia in 2D primary astrocytic cultures. The format is cell-based, mice. The text has this:
In addition to primary microglia, an immortalized microglial cell line (N9) was also used. It was noted that this line has a fast proliferation rate and appeared to suppress neuronal cultures, so primary cell lines were maintained as a source of microglia. In general, it is thought that microglia inhibit growth of astrocytic populations. Microglia proliferation is strictly regulated by colony-stimulating factor 1 and its receptor on microglia membranes. Without wishing to be held to a particular theory, it was contemplated that if the receptor for CSF1 growth factor was inhibited, the growth of microglia in astrocytic population would be inhibited. Accordingly, a 2 week experiment was performed in two dimensional (2D) culture conditions to see if microglial growth could be inhibited. For this experiment, the glial media that was supplied with 1 uM supplement of CSF1R inhibitors was used. Media was changed every second day in 96 well plates with 10.000 mice primary astrocytic cultures. […] Number of microglia was determined in cells treated with CSF1R inhibitor or control (FIG. 1, panel N) and further evaluated via WST-1 assay (FIG. 1, panel O).

For data set [4], the system named is primary murine striatal neurons, astrocytes, and microglia. Put plainly: 3D tri-culture intracerebral hemorrhage model with necrostatin-1 treatment. The format is cell-based, mouse. The settings on record: for total cell number / DNA content (DNA quantification): nec-1 conditions, 24 hour; for ROS / reactive species level vs untreated samples: nec-1 groups, 4 hours post-injury, 250 mol/mL nec-1 for 15 minutes prior to injury. The method, then:
Hemorrhage injuries were performed at the Neuroscience Center at Massachusetts General Hospital. Samples were transported to the Center, incubated for one hour at 37° C., and then injected with 10 μL of mouse blood and incubated for another hour before being returned to the Tufts University Biomedical Engineering Department. Samples were evaluated at 4 and 24 hours post-injury. For necrostatin-1 treatment, samples were incubated with […] necrostatin-1 for 15 minutes prior to performing a hemorrhage injury.
For all studies, groups included: untreated controls, sham, sham plus nec-1 treatment, hemorrhage (ICH) or ICH plus nec-1 treatment samples.
Cell viability was assessed with a Live/Dead assay, which uses a mixture of calcein and propidium iodide stains (1.2 μL of calcein (reconstituted in DMSO) and 10 μL of propidium iodide (“PI”) per 1 mL of final stain solution). Samples were washed with PBS 2-3 times and any remaining PBS was aspirated. Sponges were transferred to a 96 well plate, 100 μL of calcein/PI stain solution was added to each sample, and they were incubated at 37° C., covered in aluminum foil for 30 minutes. The stain solution was then aspirated, samples were washed with PBS 2-3 times, and then imaged using a confocal microscop with lasers of wavelengths of […] (to detect calcein staining) and […] (to detect PI staining).
DNA was quantified using a PicoGreen assay. To prepare samples for DNA quantification, they were first washed once with PBS, followed by addition of 100 μL of 0.05% Triton-X to cover the sponge. Samples were stored at −20° C. until use. For measurements, samples were thawed at room temperature and homogenized with scissors. Supernatant was collected and placed in a tube, on ice. Enough 1×TE Buffer needed for a dilution of 100 μL 1×TE buffer and 200 μL supernatant for each sample was prepared, and 4 mL of 1×TE buffer was prepared for the standards. 20×TE buffer was diluted 1:20 in diH20 to get 1×TE buffer. 1×TE buffer was then mixed with sample supernatants in separate 1.5 mL tubes. 100 μL of each sample was added to a 96-well plate, in triplicate. Standards were prepared by mixing the DNA working solution and the TE buffer to create 400 μL solutions with the following DNA concentrations: 2000 ng/mL, 1000 ng/mL, 500 ng/mL, 200 ng/mL, 100 ng/mL, 50 ng/mL, 20 ng/mL, and 0 ng/mL. Once samples were ready for analysis and the fluorescence plate reader was warmed and ready, PicoGreen stain was added to each sample. PicoGreen stain was prepared by making a 200-fold dilution of the stock PicoGreen stain in 1×TE Buffer for a final volume of 100 μL per sample plus 30%. The PicoGreen solution was protected from light and 100 μL of the diluted PicoGreen solution was added to each sample, then incubated at room temperature for 2-3 minutes. Fluorescence of samples was read using a plate-reader with 485 nm excitation and 538 nm emission. Fluorescence readings were converted into cell counts by using standard calculations to determine DNA content of each sample, which was then divided by 5.5 pg, which is the average mass of DNA in neurons (Moroz and Kohn 2013).
LDH assays were run on all samples and standards in duplicate, using a commercially available kit. An NADH standard was prepared using the stock NADH standard solution and the LDH assay buffer to achieve 50 μL each of the following concentrations: 0, 2.5, 5, 7.5, 10, and 12.5 nmole per 50 μL. 500 μL of LDH assay buffer was added to each sample for every 100 mg of tissue and samples were then homogenized with scissors, on ice, prior to centrifuging for 15 min at 10,000 xg and 4° C. 50 μL of the supernatant was added into wells in a 96 well plate (in duplicate) and LDH buffer was added to a total volume of 50 μL per well. For each reaction (sample and standards), 2 μL of LDH substrate mix was added to 48 μL of LDH assay buffer to create a Master Reaction Mix. 50 µL of reaction mix was added to each well and contents were mixed by pipetting up and down. […]

In the case of `N[C@H](CCCP(=O)(O)O)C(=O)O` [AP-5, (2R)-amino-5-phosphonopentanoate], the “spontaneous and inducible activity (LFP)” value in data set [1] was “partially blocked”.

lipopolysaccharide [LPS]: in the data set on microglia [2], the microglia activation entry is “efficient to activate microglia”.

On to `O=P(O)(O)C(Cl)(Cl)P(=O)(O)O` [clodronic acid], for which, in the data set on microglia [3], the “suitability to suppress microglial growth and activity” value is listed as “found unacceptable”.

For the compound `NC1=N[C@H](O)[C@H]2[C@H]3O[C@]4(O)O[C@@H]([C@@H](O)[C@@]2(N1)[C@@H]4O)[C@]3(O)CO` [TTX, tetrodotoxin], the “activity (LFP)” value in data set [1] was “blocked”.

With `N#Cc1cc2c(cc1[N+](=O)[O-])=NC(=O)C(=O)N=2` [CNQX, 6-cyano-7-nitroquinoxaline-2,3-dione], the “spontaneous and inducible activity (LFP)” value in data set [1] was “partially blocked”.

As for `CN1C(=O)C(Cc2c[nH]c3ccccc23)NC1=S` (centres unmarked) [necrostatin-1, Necrostatin-1], in data set [4] (24 hours post-injury), the “reactive species (ROS-RNS assay), differences between groups” value is reported as “No significant differences”. Besides, the “LDH activity vs the two sham groups” value in data set [4] (ICH+nec-1) is on record as “statistically higher levels of LDH activity”. For the same compound, in data set [4] (ICH+nec-1 vs ICH, 24 hours), the LDH activity entry is given as “slightly lower level”. Besides, in data set [4] (Sham+nec-1 compared to sham alone), the “reactive species (ROS-RNS assay)” value is “significantly lower level of reactive species”. For the same compound, the “total cell number / DNA content (DNA quantification)” value is “higher DNA content” in data set [4] and “significantly more cells were counted in nec-1 conditions” in data set [4] (listed as nec-1). Further, the “ROS / reactive species level vs untreated samples” value in data set [4] is “statistically significant decrease in the amount of reactive species”; in data set [4] (listed as nec-1) it was “significantly lower ROS levels”. Also, the “cell count and viability” value in data set [4] (sham+nec-1, 24 hours) is “highest cell count and viability after 24 hours”.
